Laboratory results published in patent publication US20240393292A1, “ALLERGY ANTIGEN AND EPITOPE THEREOF” (HOYU CO., LTD., priority 2019, published 2024).
Blank lines part the entries; values can stand above or below the substance they belong to.

System: IgE antibodies from patients
Experiment: Wheat epitope mapping (2): overlapping 10-amino-acid peptide fragments shifted by one amino acid
Assay type: binding, human
Conditions: sequence without X; for Epitope sequence binding to IgE antibody, rank of the sequence (Key/Preferably/More preferably/Further preferably): serum of patient P50 (child, general immediate type allergy to wheat)
Method in brief: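 Cellulose-bound 10-mer peptides offset by one residue were probed with patient serum IgE and detected by chemiluminescence. Secondary-antibody-only signals were subtracted per peptide. Residual binding was expressed as % of the parent overlapping peptide, scored as none (<30%), poor (30–<50%), somewhat poor (50–<70%) or retained (≥70%).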

[1] = serum of patient P52 (child, general immediate type allergy to wheat)
[2] = serum of patient P53 (child, general immediate type allergy to wheat)
[3] = serum of patient P55 (child, general immediate type allergy to wheat)
[4] = serum of patient G1 (adult, general immediate type allergy to wheat)
[5] = serum of patient G6 (adult, general immediate type allergy to wheat)

Substance: 2238 (LLRGIRNYRV; REGION 1..10: note = epitope) [compound 2238]
Epitope sequence binding to IgE antibody, rank of the sequence (Key/Preferably/More preferably) (serum of patient P31 (WDEIA)): Key

Substance: 2239 (NYRVAI; REGION 1..6: note = epitope) [compound 2239]
Epitope sequence binding to IgE antibody, rank of the sequence (Key/Preferably/More preferably) (serum of patient P31 (WDEIA)): Key

Substance: 2240 (IRNYRVAI; REGION 1..8: note = epitope) [compound 2240]
Epitope sequence binding to IgE antibody, rank of the sequence (Key/Preferably/More preferably) (serum of patient P32 (WDEIA)): Key

Substance: 2243 (RLLRGIRNY; REGION 1..9: note = epitope) [compound 2243]
Epitope sequence binding to IgE antibody, rank of the sequence (Key/Preferably/More preferably) (serum of patient P36 (WDEIA)): Key

Substance: 2244 (RNYRVA; REGION 1..6: note = epitope) [compound 2244]
Epitope sequence binding to IgE antibody, rank of the sequence (Key/Preferably/More preferably) (serum of patient P36 (WDEIA)): Key

Substance: 2247 (LLRGIRNYRV; REGION 1..10: note = epitope) [compound 2247]
Epitope sequence binding to IgE antibody, rank of the sequence (Key/Preferably/More preferably/Further preferably): Key

Substance: 2248 (IRNYRVAI; REGION 1..8: note = epitope) [compound 2248]
Epitope sequence binding to IgE antibody, rank of the sequence (Key/Preferably/More preferably/Further preferably): Key

Substance: 2250 (SRLLRGIRN; REGION 1..9: note = epitope) [compound 2250]
Epitope sequence binding to IgE antibody, rank of the sequence (Key/Preferably/More preferably) [1]: Preferably

Substance: 2251 (SRLLRGIR; REGION 1..8: note = epitope) [compound 2251]
Epitope sequence binding to IgE antibody, rank of the sequence (Key/Preferably/More preferably) [1]: Key

Substance: 2252 (LLRGIRNYRV; REGION 1..10: note = epitope) [compound 2252]
Epitope sequence binding to IgE antibody, rank of the sequence (Key/Preferably/More preferably) [1]: More preferably

Substance: 2253 (RNYRVAI; REGION 1..7: note = epitope) [compound 2253]
Epitope sequence binding to IgE antibody, rank of the sequence (Key/Preferably/More preferably) [1]: Preferably

Substance: 2254 (NYRV; REGION 1..4: note = epitope) [compound 2254]
Epitope sequence binding to IgE antibody, rank of the sequence (Key/Preferably/More preferably) [1]: Key

Substance: 2255 (LLRGIRNYRV; REGION 1..10: note = epitope) [compound 2255]
Epitope sequence binding to IgE antibody, rank of the sequence (Key/Preferably/More preferably) [2]: Preferably

Substance: 2257 (SRLLRGIRN; REGION 1..9: note = epitope) [compound 2257]
Epitope sequence binding to IgE antibody, rank of the sequence (Key/Preferably/More preferably) [3]: Key

Substance: 2258 (LRGIRNYRVA; REGION 1..10: note = epitope) [compound 2258]
Epitope sequence binding to IgE antibody, rank of the sequence (Key/Preferably/More preferably) [3]: Preferably

Substance: 2259 (RNYRV; REGION 1..5: note = epitope) [compound 2259]
Epitope sequence binding to IgE antibody, rank of the sequence (Key/Preferably/More preferably) [3]: Key

Substance: 2260 (SRLLR; REGION 1..5: note = epitope) [compound 2260]
Epitope sequence binding to IgE antibody, rank of the sequence (Key/Preferably/More preferably) [4]: Key

Substance: 2261 (LLRGIRNYRV; REGION 1..10: note = epitope) [compound 2261]
Epitope sequence binding to IgE antibody, rank of the sequence (Key/Preferably/More preferably) [4]: Key

Results, then the substance that gave them:

Epitope sequence binding to IgE antibody, rank of the sequence (Key/Preferably/More preferably) (serum of patient P34 (WDEIA)): Key
Substance: 2241 (RLLRGIRN; REGION 1..8: note = epitope) [compound 2241]

Epitope sequence binding to IgE antibody, rank of the sequence (Key/Preferably/More preferably) (serum of patient P35 (WDEIA)): Key
Substance: 2242 (IRNYRVAI; REGION 1..8: note = epitope) [compound 2242]

Epitope sequence binding to IgE antibody, rank of the sequence (Key/Preferably/More preferably/Further preferably): Preferably
Substance: 2245 (SRLLRGIR; REGION 1..8: note = epitope) [compound 2245]

Epitope sequence binding to IgE antibody, rank of the sequence (Key/Preferably/More preferably/Further preferably): Key
Substance: 2246 (SRLLR; REGION 1..5: note = epitope) [compound 2246]

Epitope sequence binding to IgE antibody, rank of the sequence (Key/Preferably/More preferably) [2]: Key
Substance: 2256 (LRGIRN; REGION 1..6: note = epitope) [compound 2256]

Epitope sequence binding to IgE antibody, rank of the sequence (Key/Preferably/More preferably) [4]: Key
Substance: 2262 (RNYRVAI; REGION 1..7: note = epitope) [compound 2262]

Epitope sequence binding to IgE antibody, rank of the sequence (Key/Preferably/More preferably) [5]: Key
Substance: 2263 (SRLLR; REGION 1..5: note = epitope) [compound 2263]

Epitope sequence binding to IgE antibody, rank of the sequence (Key/Preferably/More preferably) [5]: Key
Substance: 2264 (NYRVAI; REGION 1..6: note = epitope) [compound 2264]
